Literature values, collected in patent US11083704B2, “Method of administering nitroxyl donating compounds” (Cardioxyl Pharmaceuticals, Inc., priority 2017, dated 2021).

Legend:
[1] = healthy patients and patients hospitalized with advanced heart failure
[2] = preclinical models and Phase I/IIa studies

SMILES: Cc1ccc(S(=O)(=O)NO)o1 [N-hydroxy-5-methylfuran-2-sulfonamide]
- safety and tolerability of infusions [1]: safe and well-tolerated
- inotropy [2]: increased inotropy
- lusitropy [2]: improved lusitropy
- vasodilation [2]: peripheral vasodilation
